Reference: PubChem BioAssay (NCI)
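Results reflect a 48-hour exposure of cells in 96-well plates to compound at five concentrations. TGI marks complete inhibition of growth.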

Key:
Assay in all cases: growth of human tumour cells (NCI), 48 h
[1] = test system: SK-OV-3 ovarian
[2] = test system: EKVX NSCLC
[3] = test system: CCRF-CEM leukemia
[4] = test system: UACC-257 melanoma
[5] = test system: HCT-15 colon
[6] = test system: OVCAR-5 ovarian
[7] = test system: DMS 273 small cell lung
[8] = test system: SK-MEL-5 melanoma
[9] = test system: XF 498 CNS
[10] = test system: A498 renal
[11] = test system: COLO 205 colon
[12] = test system: A549 NSCLC
[13] = test system: HOP-18 NSCLC
[14] = test system: LOX IMVI melanoma
[15] = test system: SF-268 CNS
[16] = test system: ACHN renal
[17] = test system: DLD-1 colon
[18] = test system: 786-0 renal
[19] = test system: HCC-2998 colon
[20] = test system: M14 melanoma
[21] = test system: SN12C renal
[22] = test system: UACC-62 melanoma
[23] = test system: MALME-3M melanoma
[24] = test system: NCI-H460 lung
[25] = test system: OVCAR-3 ovarian
[26] = test system: TK-10 renal
[27] = test system: LXFL 529 NSCLC
[28] = test system: OVCAR-4 ovarian
[29] = test system: HL-60(TB) leukemia
[30] = test system: SNB-75 CNS
[31] = test system: SK-MEL-2 melanoma
[32] = test system: U251 CNS
[33] = test system: UO-31 renal
[34] = test system: SF-295 CNS
[35] = test system: RPMI-8226 leukemia
[36] = test system: KM20L2 colon
[37] = test system: SW-620 colon
[38] = test system: HT29 colon
[39] = test system: IGROV1 ovarian
[40] = test system: OVCAR-8 ovarian
[41] = test system: K-562 leukemia
[42] = test system: HOP-92 NSCLC
[43] = test system: M19-MEL melanoma
[44] = test system: MOLT-4 leukemia
[45] = test system: NCI-H226 lung
[46] = test system: SK-MEL-28 melanoma
[47] = test system: SNB-19 CNS
[48] = test system: CAKI-1 renal
[49] = test system: KM12 colon
[50] = test system: SF-539 CNS
[51] = test system: NCI-H23 lung
[52] = test system: NCI-H522 lung
[53] = test system: HCT-116 colon
[54] = test system: RXF 393 renal
[55] = test system: SR leukemia
[56] = test system: HOP-62 NSCLC
[57] = test system: SNB-78 CNS

O=C(O)CCNS(=O)(=O)c1ccc2ccccc2c1
TGI [1]: > 100 µM | TGI [2]: > 100 µM | TGI [3]: > 100 µM | TGI [4]: > 100 µM | TGI [5]: > 100 µM | TGI [6]: > 100 µM | TGI [7]: > 100 µM | TGI [8]: > 100 µM | TGI [9]: > 100 µM | TGI [10]: > 100 µM | TGI [11]: > 100 µM | TGI [12]: > 100 µM | TGI [13]: > 100 µM | TGI [14]: > 100 µM | TGI [15]: > 100 µM | TGI [16]: > 100 µM | TGI [17]: > 100 µM | TGI [18]: > 100 µM | TGI [19]: > 100 µM | TGI [20]: > 100 µM | TGI [21]: > 100 µM | TGI [22]: > 100 µM | TGI [23]: > 100 µM | TGI [24]: > 100 µM | TGI [25]: > 100 µM | TGI [26]: > 100 µM | TGI [27]: > 100 µM | TGI [28]: > 100 µM | TGI [29]: > 100 µM | TGI [30]: > 100 µM | TGI [31]: > 100 µM | TGI [32]: > 100 µM | TGI [33]: > 100 µM | TGI [34]: > 100 µM | TGI [35]: > 100 µM | TGI [36]: > 100 µM | TGI [37]: > 100 µM | TGI [38]: > 100 µM | TGI [39]: > 100 µM | TGI [40]: > 100 µM | TGI [41]: > 100 µM | TGI [42]: > 100 µM | TGI [43]: > 100 µM | TGI [44]: > 100 µM | TGI [45]: > 100 µM | TGI [46]: > 100 µM | TGI [47]: > 100 µM | TGI [48]: > 100 µM | TGI [49]: > 100 µM | TGI [50]: > 100 µM | TGI [51]: > 100 µM | TGI [52]: > 100 µM

COC1=CC(C2c3cc4c(cc3[C@@H](Nc3ccc(F)cc3)C3COC(=O)[C@H]23)OCO4)=CC(=O)C1=O (some centres not stated)
TGI [1]: 23.1 µM | TGI [2]: > 59.1 µM | TGI [3]: > 29 µM | TGI [4]: > 63.9 µM | TGI [5]: 26.9 µM | TGI [6]: 98.2 µM | TGI [53]: 30.5 µM | TGI [54]: > 100 µM | TGI [7]: 16.3 µM | TGI [8]: > 43.5 µM | TGI [9]: 27.9 µM | TGI [10]: 16 µM | TGI [11]: 41.5 µM | TGI [12]: 20.4 µM | TGI [14]: 35.6 µM | TGI [15]: 36.6 µM | TGI [16]: 23.4 µM | TGI [17]: > 100 µM | TGI [18]: 11.4 µM | TGI [19]: 39.6 µM | TGI [20]: 36.3 µM | TGI [55]: > 23.6 µM | TGI [21]: 24.8 µM | TGI [22]: 20.7 µM | TGI [23]: 36.6 µM | TGI [56]: 5.9 µM | TGI [24]: 14.9 µM | TGI [25]: > 66.5 µM | TGI [26]: > 63 µM | TGI [27]: 16.3 µM | TGI [28]: > 61.2 µM | TGI [29]: > 21.4 µM | TGI [30]: > 45.1 µM | TGI [32]: 13.7 µM | TGI [33]: 30.2 µM | TGI [34]: 11.8 µM | TGI [57]: > 96.4 µM | TGI [35]: > 100 µM | TGI [36]: > 74.6 µM | TGI [37]: > 50.1 µM | TGI [38]: > 68.3 µM | TGI [39]: 44 µM | TGI [40]: > 51.4 µM | TGI [41]: > 49.2 µM | TGI [42]: 31.7 µM | TGI [43]: 55.7 µM | TGI [44]: 14.5 µM | TGI [45]: 39.3 µM | TGI [46]: 45.8 µM | TGI [47]: > 66.5 µM | TGI [48]: 31.9 µM | TGI [49]: 34.5 µM | TGI [50]: 20.3 µM | TGI [51]: 9.97 µM | TGI [52]: 14.9 µM
